Format in all cases: in vivo, mouse
The subject of data set [1] is dy3K/dy3K mice. The experiment in a line: Histology, immunofluorescence and morphometric analysis of muscle after systemic 3-MA injection. The method, then:
Systemic administration was performed by intraperitoneal injection of 3-MA (15 mg/kg) into dy3K/dy3K mice and control littermates at the age of 2.5 weeks and 3.5 weeks. […] Prior to the euthanasia, an exploratory locomotion test was performed.
Quadriceps and tibialis anterior muscles from wild-type, dy3K/dy3K and injected mice (n=6 for each group) were rapidly dissected after euthanasia and frozen in OCT (Tissue Tek) in liquid nitrogen. Serial sections of […] were either stained with hematoxylin and eosin or processed for immunofluorescence experiments following standard procedures (20) with rabbit polyclonal antibodies directed against LC3B (1/100, #3868, Cell Signaling Technology), laminin γ1 chain (1/1000, #1083), laminin α4 chain (1/400, #1100) and […] (1/400, #1117) generously provided by Dr. T. Sasaki, rat monoclonal antibodies against laminin γ1 chain (1/200, MAB 1914, Chemicon) and tenascin-C (undiluted, MTn15), goat polyclonal antibody against collagen III (1/100, #1330, SouthernBiotech) and mouse monoclonal antibodies against caspase-3 (1/100, CPP32, BD Transduction Laboratory), embryonic myosin heavy chain (F1.652, Developmental Studies Hybridoma Bank) and MyoD (1/100, clone 5.8A Dako). For apoptotic myofiber detection, a TUNEL detection kit was used following instructions of the manufacturer (GenScript). Sections were analyzed using a Zeiss Axioplan fluorescence microscope. Images were captured using an ORCA 1394 ER digital camera with the Openlab 3 software.
Measurements were performed on whole quadriceps or tibialis anterior muscle sections from untreated wild-type and dy3K/dy3K, wild-type and dy3K/dy3K 3-MA injected animals (n=6 for each group). Tenascin-C and collagen III positive areas, eMHC positive fibers, caspase-3 positive fibers, TUNEL-positive myonuclei and fiber diameters were measured using the imageJ software. Minimal Feret's diameter was measured (41) for at least 1500 fibers for each mouse. The same number of fibers was used for quantification of fibers with centrally located nuclei. Wet quadriceps muscle weights were determined from 7 uninjected wild-type or dy3K/dy3K and 3-MA treated wild-type (n=4) and dy3K/dy3K (n=6) animals and correlated to body weight.

Data set [2] deals with dy3K/dy3K mice. The experiment in a line: Body weight measurement. Conditions: 3-MA treated vs non-injected dy3K/dy3K mice, 4-week-old. As to the method:
(§1) Systemic administration was performed by intraperitoneal injection of 3-MA (15 mg/kg) into dy3K/dy3K mice and control littermates at the age of 2.5 weeks and 3.5 weeks. Mice were sacrificed 14 days after injection and quadriceps and tibialis anterior muscles were processed for morphometric analysis, immunofluorescence experiments, qRT-PCR or Western blot analysis. Prior to the euthanasia, an exploratory locomotion test was performed.

Data set [3] relates to autophagy-related genes (LC3B, Cathepsin L, Lamp2a, Gabarapl1, Atg4b, Vps34, Beclin). The experiment in a line: Expression of autophagy-related genes in quadriceps muscle after systemic 3-MA injection (qRT-PCR, Western blot, immunofluorescence). The settings on record: dy3K/dy3K mice, 3-MA 15 mg/kg intraperitoneal at 2.5 and 3.5 weeks, 14 days post-injection. As to the method: as §1
Total RNA was extracted from 10 mg quadriceps muscle of 6 dy3K/dy3K mice (3.5-week-old) and 6 WT littermates and 5 WT and 5 dy3K/dy3K mice treated with 3-MA using RNeasy mini kit (Qiagen) including an initial step of proteinase K digestion (Fermentas, 240 ng/μl). […] Quantitative PCRs were performed in triplicate with the Maxima SYBR Green qPCR Master Mix (Fermentas). Expression of target and reference genes was monitored using a real-time qRT-PCR method (Light Cycler, Roche) with the previously described primers for the autophagic genes LC3B, Cathepsin L, Lamp2a, Gabarapl1, Atg4b, Vps34 and Beclin (8). The amplification efficiency for each primer pair was evaluated by amplification of serially diluted template cDNAs ([…]). Efficiency corrected RNA levels (in arbitrary units) were calculated by using the formula E^−Ct. Expression levels were then calculated relative to the endogenous control gene GAPDH and relative to wild-type quadriceps. […]
(Real-time PCR tracks product formation cycle by cycle.)

Data set [4] relates to dy3K/dy3K mice. The experiment in a line: Peripheral neuropathy / hind leg paralysis observation. Conditions: 3-MA treated dy3K/dy3K mice. The method, then:
as §1

The subject of data set [5] is dy3K/dy3K mice. The data set is described as follows: Survival curves. The settings on record: two systemic injections of 3-MA, 22 days for non-treated. The method, then: as §1
Death was monitored in 3-MA injected dy3K/dy3K mice (n=9). A survival curve was constructed using the GraphPad Prism 4 software.

The test system of data set [6] is dy3K/dy3K mice. The data set is described as follows: Exploratory locomotion, open field test. Conditions: 3-MA injected dy3K/dy3K mice, 14 days after injection, 5 min. As to the method:
as §1
Exploratory locomotion was examined in an open field test. In each experiment, the mouse 14 days after 3-MA injection (n=11 for dy3K/dy3K and wild-type, respectively) was placed into a new cage and allowed to explore the cage for 5 min. The time that the mouse spent moving around was measured manually.

Data set [7] relates to wild-type mice. The experiment in a line: Hind leg paralysis observation in injected wild-type mice. The settings on record: 3-MA injected wild-type mice. As to the method:
as §1

The test system of data set [8] is Akt. The data set is described as follows: Akt phosphorylation in quadriceps muscle, Western blot. The settings on record: dy3K/dy3K quadriceps. As to the method:
as §1
Isolated quadriceps muscles were obtained from 6 wild-type, 6 dy3K/dy3K mice (3.5 weeks of age) and 6 dy3K/dy3K mice 48 h or 14 days after 3-MA injection. Each sample was immediately frozen in liquid nitrogen and reduced to powder using a mortar. Protein extracts were obtained as previously described (16). A total of […] of denaturated protein was loaded on 10-20% acrylamide SDS-gels (Clearpage, CBS Scientific) and blotted onto nitrocellulose membranes (Hybond-C, Amersham) during 1.5 hour (Biorad). The membranes were blocked for one hour at RT in PBS, 0.01% Tween-20, 5% milk and incubated overnight at 4° C. with rabbit polyclonal antibodies directed against pAkt (Ser 473, 1/2000, #4060 or Thr 308, 1/1000, #2965, Cell Signaling Technology), Akt (1/1000, #4685, Cell Signaling Technology), Vps34 (1/200, V9764, Sigma) or LC3B (1/250, #2775, Cell Signaling Technology). […]

Setting [9] is: 3-MA injected dy3K/dy3K mice, quadriceps.
The mark [10] stands for this setting: 3-MA injected vs non-injected dy3K/dy3K mice, quadriceps, 14 days post-injection.
The mark [11] stands for this setting: 3-MA treated dy3K/dy3K mice, quadriceps, 14 days.

`Cn1cnc(N)c2ncnc1-2` [3-MA, 3-methyladenine]: in data set [1] (setting [9]), the “amount of MyoD1 positive nuclei” value is given as “increased”, the “number of cells with centrally located nuclei” value is reported as “slightly but significantly elevated” and the “proportion of fibers expressing eMHC” value is “significantly increased”. The “ratio of quadriceps muscle wet weight per body weight” value in data set [1] (3-MA injected vs age-matched non-injected dy3K/dy3K mice) is on record as “normalized”. In addition, in data set [1] (setting [10]), the “Collagen III expression (fibrosis)” value is listed as “reduced” and the “tenascin-C expression (fibrosis)” value was “reduced”. Besides, the “proportion of TUNEL-positive myonuclei” value in data set [1] (3-MA treated dy3K/dy3K animals, quadriceps) was “significantly reduced”. Further, in data set [1] (setting [11]), the “expression of laminin 132 chain” value is given as “near normal” and the “expression of laminin α4 chain” value is “near normal”. The muscle morphology entry in data set [1] (dy3K/dy3K mice, 3-MA 15 mg/kg intraperitoneal at 2.5 and 3.5 weeks, 14 days post-injection) is reported as “considerably improved muscle morphology”. Moreover, the caspase-3 positive fibers entry in data set [1] (dy3K/dy3K mice, forty-eight hours after 3-MA injection) is listed as “same proportion as in non-injected dy3K/dy3K mice”. In addition, in data set [1] (dy3K/dy3K quadriceps, 14 days after injection), the “proportion of caspase 3 positive fibers” value is on record as “significantly decreased”. For the same compound, the average fibre diameter result in data set [1] (quadriceps, dy3K/dy3K mice upon 3-MA injection) was “increased”. Also, the “fibre size distribution in quadriceps muscle” value in data set [1] (wild-type and dy3K/dy3K injected animals) is on record as “significantly shifted towards larger fibres”. Also, the body weight entry in data set [2] was “weighed significantly more”. Moreover, in data set [3], the “expression of the autophagy-related genes” value was “restored the expression of the autophagy-related genes to the basal level”. The “pathology of the peripheral nerve” value in data set [4] was “did not appreciably improve”. Moreover, the hind leg paralysis result in data set [4] (similar in non-treated dy3K/dy3K mice) is listed as “transient hind leg paralysis often occurred in one leg”. Further, the median survival in data set [5] is 37 days. The “activity in an open field test (exploratory locomotion)” value in data set [6] is “same level of activity as wild-type animals”. The hind leg paralysis result in data set [7] is on record as “not in 3-MA injected wild-type mice”. Also, the “Akt phosphorylation on threonine 308 and serine 473” value in data set [8] (48 h after injection) is on record as “restored to wild-type levels”. The “Akt phosphorylation on threonine 308 and serine 473” value in data set [8] (14 days after injection) is listed as “restored to wild-type levels”.

The record behind these values is US20140213559A1, “COMPOSITIONS AND TREATMENTS FOR DYSTROPHIES” (MD PHARMA AB, priority 2011, published 2014).
